The test deals with T1, human plasmin (Homo sapiens, UniProt P00747).
T1 construct: precursors of plasmin, such as plasminogen
The test is described as follows: indirect enzymatic determination: release of pNA from chromogenic substrate S-2251 by plasmin in the presence of defibrotide. It is filed as biochemical. As to the method:
150 μl of each of the standard defibrotide solutions described above are taken and introduced into the wells of the microplates.
The plasmin solution is then prepared rapidly by adding, at 0° C., 3.8 ml of TRIS-HCl buffer to the test tube containing 0.2 ml of human plasmin solution. The whole is agitated gently until dissolution has occurred, and 50 μl are taken and introduced into the wells of the microplate, followed by 50 μl of S-2251 for each well.
The microplate, placed in the MRX TCII reader set at 37° C., is agitated for approximately 10 seconds; the absorbance readings are carried out at 405 nm, at the initial time t0 and subsequently every two minutes in the interval from 10 to 20 minutes, in accordance with the enzymatic kinetics program.
The microplate, placed in the MRX TCII reader set at 37° C., is agitated for approximately 10 seconds; the absorbance readings are taken at 405 nm, at the initial time t0 and subsequently every 5 minutes for a period from the 20th to the 50th minute, in accordance with the enzymatic kinetics program.
The absorbance values measured are then processed (Excel and Sigma Plot programs), tabulated and represented in a graph (regression lines).
In addition, considering the data reported in Table 1, 2 and 3, we have also calculated the μM/min of p-Nitroaniline released by plasmin acting on the chromogenic substrate in the presence of Defibrotide.
The “b” values reported in Tables 1, 2 and 3, namely the slopes of the kinetics curves, represent the ΔAbs/min×1000 (usually, just to avoid numbers with commas, the scale for the spectrophotometric readings in FIGS. 3, 4 and 5 was multiplied by 1000; as a consequence, the real spectrophotometric absorbance reading is obtained dividing “b” by 1,000).
Knowing from the literature, the Molar Extinction Coefficient for p-Nitroaniline (8,270 M^−1cm^−1, corresponding to 0.008270 Unit of Absorbance per μM of p-Nitroaniline) it follows that: 1μM p-Nitroaniline: 0.008270 (Absorbance)=X μM p-Nitroaniline: Spectrophotometric Reading (“b”/1000)
In this way we have calculated the micromoles of p-Nitroaniline released in the previous experiments, whose value are reported in table 4.

Setting [1] is: Mean±Standard Deviation of 5 replications, X = concentration of defibrotide (μg/ml).
Setting [2] is: Replication 2, X = concentration of defibrotide (μg/ml).
Where [3] appears, read: Replication 3, X = concentration of defibrotide (μg/ml).
[4] abbreviates: Replication 4, X = concentration of defibrotide (μg/ml).
Setting [5] is: Replication 5, X = concentration of defibrotide (μg/ml).

T1 sequence (P00747 97-580 limits assumed): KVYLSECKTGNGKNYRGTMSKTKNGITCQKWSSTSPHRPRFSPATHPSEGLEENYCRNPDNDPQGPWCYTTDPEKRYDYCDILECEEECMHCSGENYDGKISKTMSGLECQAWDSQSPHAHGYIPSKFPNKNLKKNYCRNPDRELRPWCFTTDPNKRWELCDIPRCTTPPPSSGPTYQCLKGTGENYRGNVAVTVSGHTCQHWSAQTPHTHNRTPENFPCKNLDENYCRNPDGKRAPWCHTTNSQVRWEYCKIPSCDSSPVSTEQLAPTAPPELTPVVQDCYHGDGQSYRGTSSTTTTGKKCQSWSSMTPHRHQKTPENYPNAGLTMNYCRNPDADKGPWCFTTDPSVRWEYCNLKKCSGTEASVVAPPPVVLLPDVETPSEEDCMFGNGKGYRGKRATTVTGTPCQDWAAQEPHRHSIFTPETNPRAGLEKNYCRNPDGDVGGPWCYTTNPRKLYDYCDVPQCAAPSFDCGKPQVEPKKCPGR
T1 sequence (P00747 581-810 limits assumed): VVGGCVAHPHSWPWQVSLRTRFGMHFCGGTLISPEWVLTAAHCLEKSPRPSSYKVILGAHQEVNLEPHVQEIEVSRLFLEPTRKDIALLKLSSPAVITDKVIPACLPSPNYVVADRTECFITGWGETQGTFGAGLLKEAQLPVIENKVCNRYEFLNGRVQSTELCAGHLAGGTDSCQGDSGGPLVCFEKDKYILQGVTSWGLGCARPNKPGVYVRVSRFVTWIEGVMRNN

Regarding Defibrotide, the “a of pNA(μM/min)=a+blog X” value under setting [1] came out at 0.6908±0.0291 μM/min. In addition, the “b of pNA(μM/min)=a+blog X” value under setting [1] is given as 0.3140±0.0437. The “slope b of regression μM/min p-Nitroaniline = a + b log X” value stood at 0.3820 (Replication 1, X = concentration of defibrotide (μg/ml)); 0.2907 under setting [2]; 0.2741 under setting [3]; 0.2907 under setting [4]; 0.3323 under setting [5]. The “intercept a of regression μM/min p-Nitroaniline = a + b log X” value (Replication 1, X = concentration of defibrotide (μg/ml), 37° C., 405 nm) is on record as 0.7317 μM/min; the “intercept a of regression μM/min p-Nitroaniline = a + b log X” value under setting [2] worked out at 0.6625 μM/min; the “intercept a of regression μM/min p-Nitroaniline = a + b log X” value under setting [3] is 0.6708 μM/min; the “intercept a of regression μM/min p-Nitroaniline = a + b log X” value under setting [4] worked out at 0.6792 μM/min; the “intercept a of regression μM/min p-Nitroaniline = a + b log X” value under setting [5] turned out to be 0.7100 μM/min. Moreover, for the setting “plasmin-evaluation tests with substrate A1-A2-A3-X”, the “effect on rate of release of compound X (pNA) by plasmin from its substrate” value is “increases the rate of release of compound X proportionally to its concentration”.
